≈ marks a conversion by molar mass, not a printed value.
Assay: Assessment of solubility (McIlvaine buffers, 24 h shake, UPLC-UV)
Assay type: physicochemical
Conditions: kinetic from dmso stock
In short: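 Compounds from 10 mM DMSO stocks were shaken for 24 h at room temperature in McIlvaine buffers at pH 2.2, 4.5 and 6.8 (2.5% v/v DMSO final), then filtered. Filtrates were quantified by UPLC-UV at 254 nm against a 50:50 acetonitrile/water reference assumed fully dissolved, as a single determination.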

solubility at 24 h (pH 2.2, aqueous buffer) [µg/mL]	solubility at 24 h (pH 4.5, aqueous buffer) [µg/mL]	solubility at 24 h (pH 6.8, aqueous buffer) [µg/mL]	SMILES
95 (≈ 163 µM)	80 (≈ 137 µM)	87 (≈ 149 µM)	Cc1cccc(-c2cccc(-n3ncc(C(=O)O)c3OC(C)C)n2)c1OCc1ccc2c(c1)CCN(C1CCOCC1)C2 [Compound 1, 5-isopropoxy-1-(6-{3-methyl-2-[2-(tetrahydro-pyran-4-yl)-1,2,3,4-tetrahydro-isoquinolin-6-ylmethoxy]-phenyl}-pyridin-2-yl)-1H-pyrazole-4-carboxylic acid]
110 (≈ 178 µM)	83 (≈ 135 µM)	88 (≈ 143 µM)	Cc1cccc(-c2cccc(-n3ncc(C(=O)O)c3OC(C)C)n2)c1OCc1ccc2c(c1)CCN(C1CCC(F)(F)CC1)C2 [Compound 2]
96 (≈ 173 µM)	79 (≈ 142 µM)	81 (≈ 146 µM)	COc1c(C(=O)O)cnn1-c1cccc(-c2cccc(C)c2OCc2ccc3c(c2)CCN(C2CCOCC2)C3)n1 [Compound 3]
100 (≈ 166 µM)	81 (≈ 134 µM)	83 (≈ 138 µM)	Cc1cccc(-c2cccc(-n3ncc(C(=O)O)c3OC(C)C)n2)c1OCc1ccc2c(c1)CCN(CC1CC(F)(F)C1)C2 [Compound 4, 1-(6-{2-[2-(3,3-difluoro-cyclobutylmethyl)-1,2,3,4-tetrahydro-isoquinolin-6-ylmethoxy]-3-methyl-phenyl}-pyridin-2-yl)-5-isopropoxy-1H-pyrazole-4-carboxylic acid]
98 (≈ 166 µM)	76 (≈ 129 µM)	72 (≈ 122 µM)	COc1c(C(=O)O)cnn1-c1cccc(-c2cccc(C)c2OCc2ccc3c(c2)CCN(C2CCC(F)(F)CC2)C3)n1 [Compound 5]
90 (≈ 166 µM)	64 (≈ 118 µM)	81 (≈ 150 µM)	CCOc1c(C(=O)O)cnn1-c1cccc(-c2cccc(C)c2OCc2ccc3c(c2)CCN(C2COC2)C3)n1 [Compound 6]
100 (≈ 180 µM)	81 (≈ 146 µM)	75 (≈ 135 µM)	COc1c(C(=O)O)cnn1-c1cccc(-c2cccc(C)c2OCc2ccc3c(c2C)CCN(CC(C)(C)C)C3)n1 [Compound 30]
110 (≈ 198 µM)	89 (≈ 160 µM)	94 (≈ 169 µM)	COc1c(C(=O)O)cnn1-c1cccc(-c2cccc(C)c2OCc2ccc3c(c2C)CCN(C2CCOC2)C3)n1 (stereo not drawn) [Compound 31]
91 (≈ 173 µM)	73 (≈ 139 µM)	78 (≈ 148 µM)	CCOc1c(C(=O)O)cnn1-c1cccc(-c2cccc(C)c2OCc2ccc3c(c2)CCN(C(C)C)C3)n1 [Compound 32]
93 (≈ 171 µM)	73 (≈ 135 µM)	75 (≈ 138 µM)	COc1c(C(=O)O)cnn1-c1cccc(-c2cccc(C)c2OCc2ccc3c(c2)CCN(CC(C)(C)O)C3)n1 [Compound 33, 1-(6-{2-[2-(2-hydroxy-2-methyl-propyl)-1,2,3,4-tetrahydro-isoquinolin-6-ylmethoxy]-3-methyl-phenyl}-pyridin-2-yl)-5-methoxy-1H-pyrazole-4-carboxylic acid]
82 (≈ 144 µM)	65 (≈ 114 µM)	68 (≈ 120 µM)	CCOc1c(C(=O)O)cnn1-c1cccc(-c2cccc(C)c2OCc2ccc3c(c2)CCN(CC2(C)COC2)C3)n1 [Compound 34]
93 (≈ 168 µM)	73 (≈ 132 µM)	78 (≈ 141 µM)	CCOc1c(C(=O)O)cnn1-c1cccc(-c2cccc(C)c2OCc2ccc3c(c2)CCN(C2CCOC2)C3)n1 (stereo not drawn) [Compound 35]
91 (≈ 160 µM)	72 (≈ 127 µM)	74 (≈ 130 µM)	CCOc1c(C(=O)O)cnn1-c1cccc(-c2cccc(C)c2OCc2ccc3c(c2)CCN(C2CCCOC2)C3)n1 (stereo not drawn) [Compound 36]
92 (≈ 170 µM)	74 (≈ 137 µM)	78 (≈ 144 µM)	Cc1cccc(-c2cccc(-n3ncc(C(=O)O)c3OC(C)C)n2)c1OCc1ccc2c(c1)CCN(C(C)C)C2 [Compound 37]
110 (≈ 193 µM)	94 (≈ 165 µM)	88 (≈ 154 µM)	COCC(C)N1CCc2cc(COc3c(C)cccc3-c3cccc(-n4ncc(C(=O)O)c4OC(C)C)n3)ccc2C1 (stereo not drawn) [Compound 38]
93 (≈ 168 µM)	44 (≈ 79.3 µM)	81 (≈ 146 µM)	Cc1cccc(-c2cccc(-n3ncc(C(=O)O)c3OC(C)C)n2)c1OCc1ccc2c(c1)CCN(C1COC1)C2 [Compound 39]
99 (≈ 170 µM)	81 (≈ 139 µM)	85 (≈ 146 µM)	Cc1cccc(-c2cccc(-n3ncc(C(=O)O)c3OC(C)C)n2)c1OCc1ccc2c(c1)CCN(CC1(C)COC1)C2 [Compound 40]
96 (≈ 169 µM)	75 (≈ 132 µM)	80 (≈ 141 µM)	Cc1cccc(-c2cccc(-n3ncc(C(=O)O)c3OC(C)C)n2)c1OCc1ccc2c(c1)CCN(C1CCOC1)C2 (stereo not drawn) [Compound 41]
93 (≈ 160 µM)	75 (≈ 129 µM)	78 (≈ 134 µM)	Cc1cccc(-c2cccc(-n3ncc(C(=O)O)c3OC(C)C)n2)c1OCc1ccc2c(c1)CCN(C1CCCOC1)C2 (stereo not drawn) [Compound 42]
95 (≈ 171 µM)	79 (≈ 142 µM)	82 (≈ 148 µM)	Cc1cccc(-c2cccc(-n3ncc(C(=O)O)c3OC(C)C)n2)c1OCc1ccc2c(c1C)CCN(C(C)C)C2 [Compound 43]
100 (≈ 171 µM)	85 (≈ 145 µM)	88 (≈ 151 µM)	COCC(C)N1CCc2c(ccc(COc3c(C)cccc3-c3cccc(-n4ncc(C(=O)O)c4OC(C)C)n3)c2C)C1 (stereo not drawn) [Compound 44]
82 (≈ 144 µM)	61 (≈ 107 µM)	73 (≈ 128 µM)	Cc1cccc(-c2cccc(-n3ncc(C(=O)O)c3OC(C)C)n2)c1OCc1ccc2c(c1C)CCN(C1COC1)C2 [Compound 45]
100 (≈ 168 µM)	82 (≈ 137 µM)	86 (≈ 144 µM)	Cc1cccc(-c2cccc(-n3ncc(C(=O)O)c3OC(C)C)n2)c1OCc1ccc2c(c1C)CCN(CC1(C)COC1)C2 [Compound 46]
92 (≈ 169 µM)	69 (≈ 127 µM)	58 (≈ 106 µM)	CCOc1c(C(=O)O)cnn1-c1cccc(-c2cccc(C)c2OCc2ccc3c(c2)CCN(C(C)CF)C3)n1 (stereo not drawn) [Compound 49, 5-ethoxy-1-(6-{2-[2-(2-fluoro-1-methyl-ethyl)-1,2,3,4-tetrahydro-isoquinolin-6-ylmethoxy]-3-methyl-phenyl}-pyridin-2-yl)-1H-pyrazole-4-carboxylic acid]
120 (≈ 238 µM)	79 (≈ 156 µM)	75 (≈ 149 µM)	CCOc1c(C(=O)O)cnn1-c1cccc(-c2cccc(Cl)c2OCc2ccc3c(c2)CCNC3)n1 [Compound 50]
110 (≈ 196 µM)	83 (≈ 148 µM)	93 (≈ 166 µM)	CCOc1c(C(=O)O)cnn1-c1cccc(-c2cccc(Cl)c2OCc2ccc3c(c2)CCN(C2COC2)C3)n1 [Compound 51]
83 (≈ 151 µM)	58 (≈ 106 µM)	73 (≈ 133 µM)	COc1c(C(=O)O)cnn1-c1cccc(-c2cc(F)cc(F)c2OCc2ccc3c(c2)CCN(C2COC2)C3)n1 [Compound 52]
84 (≈ 146 µM)	65 (≈ 113 µM)	70 (≈ 121 µM)	COc1c(C(=O)O)cnn1-c1cccc(-c2cc(F)cc(F)c2OCc2ccc3c(c2)CCN(C2CCOCC2)C3)n1 [Compound 53]
100 (≈ 170 µM)	78 (≈ 132 µM)	75 (≈ 127 µM)	CCOc1c(C(=O)O)cnn1-c1cccc(-c2cccc(Cl)c2OCc2ccc3c(c2)CCN(C2CCOCC2)C3)n1 [Compound 54]

From patent US8906904B2, “Alkoxy pyrazoles as soluble guanylate cyclase activators” (Boehringer Ingelheim International GmbH, priority 2012, dated 2014)
